The test system of data set [1] is Mus musculus.
Description: (§1) Antipsychotic activity in po dosed mouse assessed as reduction in apomorphine-induced climbing behavior administered for 30 mins prior to apomorphine-challenge measured at 10 to 30 mins post-dose
Data set [2] relates to Mus musculus. Briefly: Toxicity in mouse assessed as effect on serum prolactin level at 0.3 to 2.7 mg/kg, po for 28 days measured 180 mins after last treatment by enzyme immunoassay. It is filed as organism-based. The arrangement: dose 0.3-2.7 mg/kg, route oral. The conditions noted are these: in vivo, 3 h.
Data set [3] is filed under the species Mus musculus. Description: animal or person. The conditions noted are these: po.
Description: as §1
Data set [4] concerns the target T1, 5-hydroxytryptamine receptor 2A (Homo sapiens, UniProt P28223). Description: Agonist activity at 5HT2A receptor (unknown origin) expressed in CHOK1 cells coexpressing Galpha15 at 10 uM by FLIPR assay relative to control. The conditions noted are these: CHO-K1. Format: cell-based.
The subject of data set [5] is Mus musculus. Description: Toxicity in mouse assessed as weight gain at 0.3 to 2.7 mg/kg, po for 28 days. The conditions noted are these: in vivo, 672 h. Format: organism-based. The arrangement: dose 0.3-2.7 mg/kg, route oral.
Data set [6] in a line: Half life in rat at 5 mg/kg, iv by HPLC-MS analysis. It is filed as ADME, organism-based. The arrangement: dose 5 mg/kg, route intravenous. The conditions noted are these: in vivo.
The nature of data set [7]: AUC (0 to infinity) in rat at 5 mg/kg, iv by HPLC-MS analysis. Format: ADME, organism-based. Further details: time infinity, dose 5 mg/kg, route intravenous. The conditions noted are these: plasma.
The subject of data set [8] is Mus musculus. This is another data set of the same source.
A short description of data set [9]: AUC (0 to 12 hrs) in rat at 12 mg/kg, po by HPLC-MS analysis. The arrangement: time < 12 hr, dose 12 mg/kg, route oral. The conditions noted are these: plasma. It is filed as ADME, organism-based.
Another data set in a line: in vivo. The conditions noted are these: mouse, po.
For data set [10], the target named is T1, 5-hydroxytryptamine receptor 2A.
Description: Antagonist activity at 5HT2A receptor (unknown origin) expressed in CHOK1 cells coexpressing Galpha15 assessed as inhibition of agonist-induced response incubated for 60 mins in incubator followed by 15 mins at room temperature by FLIPR assay
Data set [11] can be described thus: Tmax in rat at 12 mg/kg, po by HPLC-MS analysis. Format: ADME, organism-based. The arrangement: dose 12 mg/kg, route oral. The conditions noted are these: in vivo.
Data set [12] is described as follows: Half life in rat at 12 mg/kg, po by HPLC-MS analysis. Format: ADME, organism-based. Further details: dose 12 mg/kg, route oral. The conditions noted are these: in vivo.
The nature of data set [13]: AUC (0 to infinity) in rat at 12 mg/kg, po by HPLC-MS analysis. It is filed as ADME, organism-based. Further details: time infinity, dose 12 mg/kg, route oral. The conditions noted are these: plasma.
A short description of data set [14]: Cmax in rat at 12 mg/kg, po by HPLC-MS analysis. Further details: dose 12 mg/kg, route oral. It is filed as ADME, organism-based. The conditions noted are these: in vivo.
Data set [15] relates to Mus musculus. Description: Toxicity in po dosed mouse assessed as induction of catalepsy. It is filed as organism-based. The conditions noted are these: in vivo.
In data set [16] the target is T2, 5-hydroxytryptamine receptor 1A (Homo sapiens, UniProt P08908).
T2 sequence (P08908 whole entry): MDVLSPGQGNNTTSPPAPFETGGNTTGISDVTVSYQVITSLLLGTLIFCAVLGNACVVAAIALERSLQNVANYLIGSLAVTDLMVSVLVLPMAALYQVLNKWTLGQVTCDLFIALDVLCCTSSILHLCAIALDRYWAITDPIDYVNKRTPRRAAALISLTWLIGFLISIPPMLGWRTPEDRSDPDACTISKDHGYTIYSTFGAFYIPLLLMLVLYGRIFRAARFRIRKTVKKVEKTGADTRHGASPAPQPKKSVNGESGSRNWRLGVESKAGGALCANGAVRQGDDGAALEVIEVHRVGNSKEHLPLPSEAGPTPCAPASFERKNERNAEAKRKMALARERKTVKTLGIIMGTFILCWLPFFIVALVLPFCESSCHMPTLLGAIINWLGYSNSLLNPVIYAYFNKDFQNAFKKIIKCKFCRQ
Description: Antagonist activity at 5HT1A receptor (unknown origin) expressed in CHOK1 cells coexpressing Galpha15 assessed as inhibition of agonist-induced response incubated for 60 mins in incubator followed by 15 mins at room temperature by FLIPR assay

For data set [17], the species on record is Mus musculus. Description: animal or person. The conditions noted are these: po. This is another data set of the same source.
Data set [18] is described as follows: Oral bioavailability in rat at 12 mg/kg by HPLC-MS analysis. It is filed as ADME, organism-based. The conditions noted are these: in vivo.
Data set [19] concerns the target T3, D(2) dopamine receptor (Homo sapiens, UniProt P14416). Description: Agonist activity at dopamine D2 receptor (unknown origin) expressed in CHOK1 cells coexpressing Galpha15 at 10 uM by FLIPR assay relative to control. The conditions noted are these: CHO-K1. It is filed as cell-based.
Data set [20] deals with T3, D(2) dopamine receptor.
Data set [21] in a line: AUC (0 to 12 hrs) in rat at 5 mg/kg, iv by HPLC-MS analysis. It is filed as ADME, organism-based. The arrangement: time < 12 hr, dose 5 mg/kg, route intravenous. The conditions noted are these: plasma.
A further data set deals with D(3) dopamine receptor (Homo sapiens, UniProt P35462).
Sequence of D(3) dopamine receptor (P35462 whole entry): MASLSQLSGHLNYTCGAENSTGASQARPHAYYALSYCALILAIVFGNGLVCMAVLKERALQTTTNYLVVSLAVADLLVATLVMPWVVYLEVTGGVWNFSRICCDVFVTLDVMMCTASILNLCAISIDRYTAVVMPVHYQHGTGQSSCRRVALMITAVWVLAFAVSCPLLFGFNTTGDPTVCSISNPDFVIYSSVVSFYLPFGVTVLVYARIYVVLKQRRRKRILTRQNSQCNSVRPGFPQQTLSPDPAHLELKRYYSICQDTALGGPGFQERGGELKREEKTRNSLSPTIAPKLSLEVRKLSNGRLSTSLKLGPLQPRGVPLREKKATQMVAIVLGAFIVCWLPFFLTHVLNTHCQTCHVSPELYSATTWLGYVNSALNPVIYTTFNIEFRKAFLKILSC

As usually defined, the ED50 is the dose at which the effect has come halfway, by size or by number of responders. Usually half-life stands for the time in which the quantity being followed falls by half. A high value points to slow decline. For orientation: AUC(0-inf) means total exposure, with the tail of the curve extrapolated. What is called AUC(0-t) is exposure summed from dosing to a finite time, without extrapolation to infinity. Lower therefore signals less exposure. Broadly, the IC50 is the concentration that gives 50% inhibition. The low end stands for greater potency, the high end for weaker potency. Usually Tmax stands for the time from dosing to the highest level. A word on the Cmax: it is the peak of the concentration-time curve. In general, bioavailability refers to the share of a dose that reaches the circulation, judged against a reference dose that is usually intravenous.

SMILES strings stand for the structures.

T3 sequence (P14416 whole entry): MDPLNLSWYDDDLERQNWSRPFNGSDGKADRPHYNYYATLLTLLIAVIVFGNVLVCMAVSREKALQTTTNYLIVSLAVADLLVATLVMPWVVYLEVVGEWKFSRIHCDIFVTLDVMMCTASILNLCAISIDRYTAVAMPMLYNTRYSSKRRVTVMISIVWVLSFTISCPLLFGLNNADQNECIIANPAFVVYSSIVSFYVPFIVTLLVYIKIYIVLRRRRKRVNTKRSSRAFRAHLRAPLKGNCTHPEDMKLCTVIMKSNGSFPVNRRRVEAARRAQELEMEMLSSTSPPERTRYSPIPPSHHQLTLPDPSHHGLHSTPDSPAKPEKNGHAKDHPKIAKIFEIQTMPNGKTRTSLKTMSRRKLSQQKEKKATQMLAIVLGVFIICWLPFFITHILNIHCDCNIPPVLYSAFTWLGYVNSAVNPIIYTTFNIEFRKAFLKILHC
T1 sequence (P28223 whole entry): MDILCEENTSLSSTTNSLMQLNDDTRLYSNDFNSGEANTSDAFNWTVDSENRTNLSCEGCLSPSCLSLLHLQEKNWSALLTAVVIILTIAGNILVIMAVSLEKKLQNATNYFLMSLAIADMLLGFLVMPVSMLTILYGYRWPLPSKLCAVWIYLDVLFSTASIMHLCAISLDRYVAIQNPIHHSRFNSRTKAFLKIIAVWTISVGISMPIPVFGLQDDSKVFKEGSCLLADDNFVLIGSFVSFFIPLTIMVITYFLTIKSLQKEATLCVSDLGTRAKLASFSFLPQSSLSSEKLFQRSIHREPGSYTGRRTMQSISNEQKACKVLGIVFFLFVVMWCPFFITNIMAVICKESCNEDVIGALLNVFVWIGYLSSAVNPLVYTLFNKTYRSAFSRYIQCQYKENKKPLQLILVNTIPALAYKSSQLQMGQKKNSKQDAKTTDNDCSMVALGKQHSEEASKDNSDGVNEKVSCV

For the compound `Cc1cc(=O)oc2c(Cl)c(OCCCCN3CCC(c4noc5cc(F)ccc45)CC3)ccc12`, the Activity result in the data set with Mus musculus [1] is “Dose-dependent effect”; in the data set with Mus musculus [2] it was “Non-toxic”; in data set [4], 10%; with Mus musculus [5] it was “Non-toxic”; in the data set on Mus musculus [8], “Dose-dependent effect”; on D(2) dopamine receptor [19], 2%. Also, the results for the 50% effective dose (ED50) in the data set listed under Mus musculus [3], in the data set with Mus musculus [15] and in the data set listed under Mus musculus [17] were 0.14 mg/kg, 70.85 mg/kg and 0.32 mg/kg, respectively. In addition, the half-life is 300 min in [6] and 402 min in data set [12]. The area under the curve AUC(0-inf) in data set [7] worked out at 914 ng·h/mL; in data set [13], 703 ng·h/mL. The values for the area under the curve AUC(0-t) at 12 h in [9] and in data set [21] were 644 ng·h/mL and 822 ng·h/mL, respectively. Also, in “in vivo”, the selectivity ratio was found to be 221. For the same compound, the IC50 came to 39.2 nM in data set [10], 11.8 nM in [16], 26.3 nM at D(2) dopamine receptor [20] and 24.8 nM against D(3) dopamine receptor. The time to peak (Tmax) in data set [11] was 3 h. In data set [14], this compound registered a Cmax of 72.1 ng/mL. This compound also showed a bioavailability in [18] of 32%.
